The NIST ThermoML archive (doi:10.1016/j.fluid.2018.04.012)
± gives the expanded uncertainty stated by the source.

Assay: xn = mol fraction of the nth substance listed
Details: Liquid, Vibrating tube method

CC(C)OC(C)C [diisopropyl ether] + CC(C)O
mass density [kg/m3]
Details	x2 = 0.1503	x2 = 0.2979	x2 = 0.4228	x2 = 0.5	x2 = 0.6737	x2 = 0.8483
313.15 K, 45000 kPa	–	–	–	–	780.4 ± 0.8	791.7 ± 0.8
313.15 K, 50000 kPa	759.5 ± 0.9	765.4 ± 0.9	770.9 ± 0.9	774.5 ± 0.9	783.9 ± 0.9	794.9 ± 0.8
313.15 K, 55000 kPa	763.3 ± 0.9	769 ± 0.9	774.4 ± 0.9	778.1 ± 0.9	787.3 ± 0.9	798.1 ± 0.9
313.15 K, 60000 kPa	766.8 ± 0.9	772.5 ± 0.9	777.8 ± 0.9	781.4 ± 0.9	790.5 ± 0.9	801.2 ± 0.9
313.15 K, 65000 kPa	770.2 ± 1	775.8 ± 1	781.1 ± 0.9	784.7 ± 0.9	793.7 ± 0.9	804.2 ± 0.9
313.15 K, 70000 kPa	773.5 ± 1	779 ± 1	784.3 ± 1	787.7 ± 1	796.6 ± 0.9	807 ± 0.9
313.15 K, 80000 kPa	779.6 ± 1	785.1 ± 1	790.3 ± 1	793.6 ± 1	802.3 ± 1	812.5 ± 0.9
313.15 K, 90000 kPa	785.6 ± 1.1	790.9 ± 1.1	796 ± 1	799.3 ± 1	807.8 ± 1	817.8 ± 1
313.15 K, 100000 kPa	791.2 ± 1.1	796.3 ± 1.1	801.3 ± 1.1	804.5 ± 1.1	812.9 ± 1	822.7 ± 1
313.15 K, 110000 kPa	796.4 ± 1.2	801.5 ± 1.1	806.4 ± 1.1	809.6 ± 1.1	817.9 ± 1.1	827.5 ± 1
313.15 K, 120000 kPa	801.3 ± 1.2	806.4 ± 1.2	811.2 ± 1.2	814.4 ± 1.1	822.4 ± 1.1	832 ± 1.1
313.15 K, 130000 kPa	806.2 ± 1.2	811.2 ± 1.2	815.8 ± 1.2	819 ± 1.2	826.9 ± 1.1	836.3 ± 1.1
313.15 K, 140000 kPa	810.9 ± 1.3	815.8 ± 1.2	820.2 ± 1.2	823.5 ± 1.2	831.3 ± 1.2	840.6 ± 1.1
333.15 K, 100 kPa	687.4 ± 0.7	694.9 ± 0.7	702.4 ± 0.7	707 ± 0.7	719.4 ± 0.7	734.1 ± 0.7
333.15 K, 1000 kPa	689 ± 0.7	696.4 ± 0.7	703.7 ± 0.7	708.4 ± 0.7	720.7 ± 0.7	735.3 ± 0.7
333.15 K, 5000 kPa	695.4 ± 0.7	702.6 ± 0.7	709.5 ± 0.7	714.2 ± 0.7	726.1 ± 0.7	740.2 ± 0.7
333.15 K, 10000 kPa	702.7 ± 0.8	709.6 ± 0.7	716.1 ± 0.7	720.7 ± 0.7	732.2 ± 0.7	745.8 ± 0.7
333.15 K, 15000 kPa	709.3 ± 0.8	716 ± 0.8	722.3 ± 0.8	726.8 ± 0.8	737.9 ± 0.8	751.1 ± 0.7
333.15 K, 20000 kPa	715.3 ± 0.8	721.8 ± 0.8	728 ± 0.8	732.3 ± 0.8	743.1 ± 0.8	755.9 ± 0.8
333.15 K, 25000 kPa	720.9 ± 0.8	727.3 ± 0.8	733.3 ± 0.8	737.5 ± 0.8	748 ± 0.8	760.5 ± 0.8
333.15 K, 30000 kPa	726.2 ± 0.8	732.4 ± 0.8	738.3 ± 0.8	742.4 ± 0.8	752.6 ± 0.8	764.9 ± 0.8
333.15 K, 35000 kPa	731.1 ± 0.8	737.2 ± 0.8	743 ± 0.8	747 ± 0.8	757 ± 0.8	769 ± 0.8
333.15 K, 40000 kPa	735.8 ± 0.9	741.7 ± 0.9	747.4 ± 0.9	751.4 ± 0.9	761.2 ± 0.8	772.9 ± 0.8
333.15 K, 45000 kPa	740.2 ± 0.9	746 ± 0.9	751.7 ± 0.9	755.4 ± 0.9	765.1 ± 0.9	776.6 ± 0.8
333.15 K, 50000 kPa	744.4 ± 0.9	750.2 ± 0.9	755.7 ± 0.9	759.4 ± 0.9	768.9 ± 0.9	780.3 ± 0.9
333.15 K, 55000 kPa	748.4 ± 0.9	754.1 ± 0.9	759.6 ± 0.9	763.2 ± 0.9	772.6 ± 0.9	783.8 ± 0.9
333.15 K, 60000 kPa	752.2 ± 1	757.8 ± 1	763.3 ± 0.9	766.8 ± 0.9	776.1 ± 0.9	787 ± 0.9
333.15 K, 65000 kPa	756 ± 1	761.5 ± 1	766.9 ± 1	770.4 ± 1	779.4 ± 0.9	790.3 ± 0.9
333.15 K, 70000 kPa	759.5 ± 1	765 ± 1	770.3 ± 1	773.7 ± 1	782.7 ± 1	793.5 ± 0.9
333.15 K, 80000 kPa	766.3 ± 1.1	771.6 ± 1	776.8 ± 1	780.1 ± 1	788.9 ± 1	799.3 ± 1
333.15 K, 90000 kPa	772.6 ± 1.1	777.8 ± 1.1	782.9 ± 1.1	786.2 ± 1.1	794.8 ± 1	805 ± 1
333.15 K, 100000 kPa	778.5 ± 1.2	783.6 ± 1.1	788.6 ± 1.1	791.8 ± 1.1	800.2 ± 1.1	810.2 ± 1
333.15 K, 110000 kPa	784.1 ± 1.2	789.2 ± 1.2	794 ± 1.2	797.3 ± 1.1	805.5 ± 1.1	815.3 ± 1.1
333.15 K, 120000 kPa	789.4 ± 1.2	794.4 ± 1.2	799.1 ± 1.2	802.3 ± 1.2	810.4 ± 1.1	820.1 ± 1.1
333.15 K, 130000 kPa	794.5 ± 1.3	799.4 ± 1.3	804 ± 1.2	–	–	–
